Laboratory results reported in patent US10329289B2, “6,7-dihydro-5H-pyrrolo[3,4-B]pyridin-5-one allosteric modulators of the M4 muscarinic acetylcholine receptor” (Merck Sharp & Dohme Corp., priority 2015, dated 2019).

biological target: T1, human M4 muscarinic acetylcholine receptor (Homo sapiens, UniProt P08173); assay: human FLIPR-based M4 PAM assay (Ca2+ mobilization, CHO-K1 cells with human M4 receptor and Gαqi5); assay type: cell-based; settings: acetylcholine at 20% of maximum response, read-out: M4 PAM IP
T1 construct: expressed in transfected cells; host or cells: CHO-K1
T1 sequence (P08173 1-479): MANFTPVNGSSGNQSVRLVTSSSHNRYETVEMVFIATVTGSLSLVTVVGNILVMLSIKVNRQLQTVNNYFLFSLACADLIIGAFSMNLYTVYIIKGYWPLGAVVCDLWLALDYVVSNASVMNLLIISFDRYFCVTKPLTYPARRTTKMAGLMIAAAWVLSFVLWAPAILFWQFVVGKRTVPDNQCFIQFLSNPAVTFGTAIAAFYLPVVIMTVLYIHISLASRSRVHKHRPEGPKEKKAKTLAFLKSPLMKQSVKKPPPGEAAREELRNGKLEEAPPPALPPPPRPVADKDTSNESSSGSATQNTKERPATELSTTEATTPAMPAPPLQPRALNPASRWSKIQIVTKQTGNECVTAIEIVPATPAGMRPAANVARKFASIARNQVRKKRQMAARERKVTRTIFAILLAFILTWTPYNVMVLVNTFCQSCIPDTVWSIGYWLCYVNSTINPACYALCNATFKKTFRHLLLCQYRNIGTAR
Method in brief: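 CHO-K1 cells stably expressing human M4 and chimeric Gαqi5 were dye-loaded ~1 h at 37 °C and read for Ca2+ fluorescence. Compound followed by acetylcholine at an EC20 (sometimes an EC70 third addition); inflection point from a 4-parameter logistic fit.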

Row | Structure (SMILES) | EC50
1 | CCc1cc2c(nc1N1CCC(Oc3ccc4c(c3)COCC4)CC1)[C@@H](CO)N(C)C2=O [Example 361, (S)-3-ethyl-7-(hydroxymethyl)-2-(4-(isochroman-7-yloxy)piperidin-1-yl)-6-methyl-6,7-dihydro-5H-pyrrolo[3,4-b]pyridin-5-one] | 85 nM
2 | Cc1cc2c(nc1N1CCC(Oc3ccc4[nH]nc(C#N)c4c3)CC1)CNC2=O [Example 316, 5-((1-(3-Methyl-5-oxo-6,7-dihydro-5H-pyrrolo[3,4-b]pyridin-2-yl)piperidin-4-yl)oxy)-1H-indazole-3-carbonitrile] | 198 nM
3 | COc1ccc(O[C@@H]2CCN(c3nc4c(cc3C)C(=O)NC4)C[C@H]2F)cn1 [Example 30, 2-((3R,4R)-3-fluoro-4-((6-methoxypyridin-3-yl)oxy)piperidin-1-yl)-3-methyl-6,7-dihydro-5H-pyrrolo[3,4-b]pyridin-5-one] | 25 nM
4 | Cc1cc2c(nc1N1CCC(Oc3cccc(F)c3)CC1)CNC2=O [Example 71] | 42 nM
5 | COc1ccc(OC2[C@@H]3C[C@H]2CN(c2nc4c(cc2C)C(=O)NC4)C3)cn1 (single isomer, unassigned) [Example 185A] | 8630 nM
6 | Cc1cc2c(nc1N1CC[C@@H](Oc3ccc4c(c3)COC4)[C@H](F)C1)CN(CCO)C2=O [Example 257, 2-((3R,4R)-4-((1,3-dihydro-2-benzofuran-5-yl)oxy)-3-fluoropiperidin-1-yl)-6-(2-hydroxyethyl)-3-methyl-6,7-dihydro-5H-pyrrolo[3,4-b]pyridin-5-one] | 84 nM
7 | Cc1cc2c(nc1N1CCC(Oc3ccc(OCCN(C)C)nc3)CC1)CNC2=O [Example 168, 2-(4-((6-(2-(dimethylamino)ethoxy)pyridin-3-yl)oxy)piperidin-1-yl)-3-methyl-6,7-dihydro-5H-pyrrolo[3,4-b]pyridin-5-one] | 119 nM
8 | Cc1cc2c(nc1N1CCC(OCC3(C(F)(F)F)CC3)CC1)CNC2=O [Example 189, 3-methyl-2-(4-((1-(trifluoromethyl)cyclo-propyl)methoxy)piperidin-1-yl)-6,7-dihydro-5H-pyrrolo[3,4-b]pyridin-5-one] | 265 nM
9 | Cc1cc2c(nc1N1CC[C@@H](Oc3cccc(C#N)c3)[C@@H](F)C1)CNC2=O (relative stereo) [Example 7, 3-((cis-3-fluoro-1-(3-methyl-5-oxo-6,7-dihydro-5H-pyrrolo[3,4-b]pyridin-2-yl)piperidin-4-yl)oxy)benzonitrile] | 30 nM
10 | Cc1cc2c(nc1N1CCC(Oc3ccc4c(c3)C(=O)N(C)C4)CC1)CNC2=O [Example 67, 3-methyl-2-(4-((2-methyl-3-oxoisoindolin-5-yl)oxy)piperidin-1-yl)-6,7-dihydro-5H-pyrrolo[3,4-b]pyridin-5-one] | 136 nM
11 | COc1ccc(OC2CCN(c3nc4c(cc3C)C(=O)NC4)CC2)cc1 [Example 47, 2-(4-(4-methoxyphenoxy)piperidin-1-yl)-3-methyl-6,7-dihydro-5H-pyrrolo[3,4-b]pyridin-5-one] | 41 nM
12 | CCc1cc2c(nc1N1CCC(Oc3ccc4c(c3)COC4)CC1)[C@H](CO)N(C)C2=O [Example 352, can-2-(4-((1,3-dihydro-2-benzofuran-5-yl)oxy)piperidin-1-yl)-3-ethyl-7-(hydroxymethyl)-6-methyl-6,7-dihydro-5H-pyrrolo[3,4-b]pyridin-5-one] | 2100 nM
13 | Cc1ccc(OC2CCN(c3nc4c(cc3C)C(=O)NC4)CC2)cc1 [Example 83, 3-methyl-2-(4-(p-tolyloxy)piperidin-1-yl)-6,7-dihydro-5H-pyrrolo[3,4-b]pyridin-5-one] | 48 nM
14 | Cc1cc2c(nc1N1CCC(OCC3(C)CC3)CC1)CN(C)C2=O [Example 338, 3,6-dimethyl-2-(4-((1-methylcyclopropyl)methoxy)piperidin-1-yl)-6,7-dihydro-5H-pyrrolo[3,4-b]pyridin-5-one] | 40 nM
15 | Cc1cc2c(nc1N1CCC(Oc3cnc4[nH]ccc4c3)CC1)CNC2=O [Example 70, 2-(4-((1H-pyrrolo[2,3-b]pyridin-5-yl)oxy)piperidin-1-yl)-3-methyl-6,7-dihydro-5H-pyrrolo[3,4-b]pyridin-5-one] | 79 nM
16 | Cc1cc2c(nc1N1CC[C@@H](Oc3cccc(C#N)c3)[C@@H](F)C1)CN(C)C2=O [Example 45, 3-(((3S,4R)-1-(3,6-dimethyl-5-oxo-6,7-dihydro-5H-pyrrolo[3,4-b]pyridin-2-yl)-3-fluoropiperidin-4-yl)oxy)benzonitrile] | 53 nM
17 | Cc1cc2c(nc1N1CCC(Oc3cn[nH]c3)CC1)CNC2=O [Example 142, 2-(4-((1H-pyrazol-4-yl)oxy)piperidin-1-yl)-3-methyl-6,7-dihydro-5H-pyrrolo[3,4-b]pyridin-5-one] | 270 nM
18 | COC(=O)Cn1ncc2cc(OC3CCN(c4nc5c(cc4C)C(=O)NC5)CC3)ccc21 [Example 211, methyl 2-(5-((1-(3-methyl-5-oxo-6,7-dihydro-5H-pyrrolo[3,4-b]pyridin-2-yl)piperidin-4-yl)oxy)-1H-indazol-1-yl)acetate] | 216 nM
19 | Cc1cc2c(nc1N1CCC(Oc3cccc(C#N)c3)CC1)CN(CCO)C2=O [Example 239, 3-((1-(6-(2-hydroxyethyl)-3-methyl-5-oxo-6,7-dihydro-5H-pyrrolo[3,4-b]pyridin-2-yl)piperidin-4-yl)oxy)benzonitrile] | 36 nM
20 | Cc1cc(OC2CCN(c3nc4c(cc3C)C(=O)NC4)CC2)cnc1C [Example 114, 2-(4-((5,6-dimethylpyridin-3-yl)oxy)piperidin-1-yl)-3-methyl-6,7-dihydro-5H-pyrrolo[3,4-b]pyridin-5-one] | 88 nM
21 | COCCCN1Cc2nc(N3CCC(Oc4ccc(OC)nc4)CC3)c(C)cc2C1=O [Example 251, 6-(3-methoxypropyl)-2-(4-((6-methoxypyridin-3-yl)oxy)piperidin-1-yl)-3-methyl-6,7-dihydro-5H-pyrrolo[3,4-b]pyridin-5-one] | 198 nM
22 | Cc1cc2c(nc1N1CCC(Oc3ccc4c(c3)CCOC4)CC1)CNC2=O [Example 207, 2-(4-(isochroman-6-yloxy)piperidin-1-yl)-3-methyl-6,7-dihydro-5H-pyrrolo[3,4-b]pyridin-5-one] | 30 nM
23 | Cc1cc(OC2CCN(c3nc4c(cc3C)C(=O)NC4)CC2)ccc1F [Example 108, 2-(4-(4-fluoro-3-methylphenoxy)piperidin-1-yl)-3-methyl-6,7-dihydro-5H-pyrrolo[3,4-b]pyridin-5-one] | 59 nM
24 | Cc1cc2c(nc1N1CCC(OCC3(C#N)CC3)CC1)CNC2=O [Example 36, 1-(((1-(3-methyl-5-oxo-6,7-dihydro-5H-pyrrolo[3,4-b]pyridin-2-yl)piperidin-4-yl)oxy)methyl)cyclo-propane-1-carbonitrile] | 302 nM
25 | Cc1cc2c(nc1N1CCC(Oc3ccc(N(C)C)nc3)CC1)CNC2=O [Example 106, 2-(4-((6-(dimethylamino)pyridin-3-yl)oxy)piperidin-1-yl)-3-methyl-6,7-dihydro-5H-pyrrolo[3,4-b]pyridin-5-one] | 298 nM

Now from value to compound:

Row | EC50 | Structure (SMILES)
26 | 144 nM | Cc1cc2c(nc1N1CCC(Oc3ccc4c(c3)CC[C@H]4CCO)CC1)CNC2=O [Example 157B, (S)-2-(4-((1-(2-hydroxyethyl)-2,3-dihydro-1H-inden-5-yl)oxy)piperidin-1-yl)-3-methyl-6,7-dihydro-5H-pyrrolo[3,4-b]pyridin-5-one]
27 | 45 nM | CCc1cc2c(nc1N1CC[C@H](OCC3(C)CC3)C(F)(F)C1)CNC2=O (single isomer, unassigned) [Example 374B]
28 | 416 nM | CCc1cc2c(nc1N1CC[C@@H](OCC3(C)CC3)C(F)(F)C1)CNC2=O (single isomer, unassigned) [Example 374A]
29 | 87 nM | CO[C@H]1Cc2ccc(OC3CCN(c4nc5c(c(C)c4C)C(=O)N(CCO)C5)CC3)cc2C1 [Example 267D, (S)-6-(2-hydroxyethyl)-2-(4-((2-methoxy-2,3-dihydro-1H-inden-5-yl)oxy)piperidin-1-yl)-3,4-dimethyl-6,7-dihydro-5H-pyrrolo[3,4-b]pyridin-5-one]
30 | 501 nM | Cc1cc2c(nc1N1CCC(OC[C@]3(C)CC3(F)F)CC1)CNC2=O [Example 8B, (S)-2-(4-((2,2-difluoro-1-methylcyclopropyl)methoxy)piperidin-1-yl)-3-methyl-6,7-dihydro-5H-pyrrolo[3,4-b]pyridin-5-one]
31 | 287 nM | Cc1cc2c(nc1N1CCC(Oc3cccc(S(C)(=O)=O)c3)CC1)CNC2=O [Example 47A, 3-methyl-2-(4-(3-(methylsulfonyl)phenoxy)piperidin-1-yl)-6,7-dihydro-5H-pyrrolo[3,4-b]pyridin-5-one]
32 | 91 nM | Cc1cc2c(nc1N1CCC(Oc3ccc4c(c3)CCOCC4)CC1)CNC2=O [Example 321B, 3-methyl-2-(4-((1,2,4,5-tetrahydrobenzo[d]oxepin-7-yl)oxy)piperidin-1-yl)-6,7-dihydro-5H-pyrrolo[3,4-b]pyridin-5-one]
33 | 17 nM | Cc1cc2c(nc1N1CCC(Oc3ccccc3)C(F)(F)C1)CNC2=O (single isomer, unassigned) [Example 158B, trans-2-(3,3-Difluoro-4-phenoxypiperidin-1-yl)-3-methyl-6,7-dihydro-5H-pyrrolo[3,4-b]pyridin-5-one]
34 | 166 nM | Cc1cc2c(nc1N1CCC(Oc3ccc4c(c3)C[S+]([O-])C4)CC1)CNC2=O (single isomer, unassigned) [Example 168B]
